Assays:
[1] = Titration of approx. 200 mM sulfide in 24 hour old rumen fluid with 1 M MnCl2, BaCl2 or CaCl2, silver/sulfide electrode; design: species or system Holstein cows
Experimental: 24 hour old undiluted rumen fluid from rumen fistulated Holstein cows was obtained. 4 ml of Na2S in water (approximately 1 M) was added to 16 ml of the rumen fluid. The final concentration of sulfide ion in the rumen fluid was approximately 200 mM. […] The progress of the reaction was followed using the same silver/sulfide electrode set-up described above (Orion, Ion Plus Silver/Sulfide 9616BNWP).

[2] = Effect of MnCl2 supplementation on cattle (feedlot trial); format: in vivo, Angus based feeder calves; conditions: feeder calves, approx. 0.55 g/head/day MnCl2 and 10.0 g/head/day FeCl2 in supplement with Yucca extract
Excerpt: In this example, forty-six Angus based feeder calves were blocked by sex (heifers and steers) and assigned within block to one of two treatments. One group (one pen of steers and one pen of heifers) was fed a commercially available feed additive including Yucca extract ([…] Corporation, Anoka, Minn.) mixed into the feedlot supplement. […] The supplement also contained minerals, vitamins, […]), and carrier feed products including corn, barley sprouts, and distillers grains. […] The results (DMI=dry matter intake, ADG=average daily gain) are shown below in Table 5.

[3] = Titration of approx. 200 mM sulfide in fresh rumen fluid with 1 M metal chloride, silver/sulfide electrode; design: species or system Holstein cows; conditions: for mVolts (Negative Value): ~200 mM sulfide, fresh rumen fluid
Experimental: Fresh undiluted rumen fluid was obtained from rumen fistulated Holstein cows. 1.5 ml of a saturated solution of Na2S in water (approximately 2.7 M) was added to 18.5 ml of the rumen fluid. Sodium sulfide solutions were quantified by titration using a silver/sulfide electrode (Orion, Ion Plus Silver/Sulfide 9616BNWP) and a commercial lead standard (0.1 M Pb^2+, Orion 948206). The final concentration for sulfide ion in the rumen fluid was approximately 200 mM. This solution was then titrated with a 1 M solution of MnCl2 in water. The progress of the reaction was followed using the silver/sulfide electrode.
Fresh undiluted rumen fluid was obtained from rumen fistulated Holstein cows. 1.5 ml of saturated solution of Na2S in water (approximately 2.7 M) was added to 18.5 ml of the rumen fluid. The final concentration of sulfide ion in the rumen fluid was approximately 200 mM. This solution was then titrated with a 1 M solution of FeCl2 in water. The progress of the reaction was followed using the same silver/sulfide electrode set-up described above (Orion, Ion Plus Silver/Sulfide 9616BNWP).
Data taken from Examples 1 and 2 above were plotted together in order to gauge the relative efficacy of MnCl2 versus FeCl2 in removing sulfide ion from rumen fluid.

[4] = Precipitating activity: rumen fluid containing manganese compound titrated with 1.0M Na2S, silver/sulfide electrode; design: species or system Holstein cows; conditions: for mVolts: 200 mM MnCl2 in rumen fluid
Experimental: Next, 0.28 g of MnO(II) was placed in a 100 ml beaker and 20 ml of rumen fluid was added. Then 0.17 g of MnO2(IV) was placed in 100 ml beaker and 20 ml of rumen fluid was added. Each of these compositions, in addition to a rumen fluid control, was then titrated with a 1.0M solution of Na2S. The progress of the reaction was followed using the same silver/sulfide electrode set-up described above (Orion, Ion Plus Silver/Sulfide 9616BNWP).

Substance: manganese (II) chloride [MnCl2]
- mVolts ([1]; Volume 0.0 of 1.0M MnCl2, ~200 mM sulfide): 934.0 mVolts
- mVolts ([1]; Volume 0.2 of 1.0M MnCl2, ~200 mM sulfide): 931.7 mVolts
- mVolts ([1]; Volume 0.4 of 1.0M MnCl2, ~200 mM sulfide): 931.6 mVolts
- mVolts ([1]; Volume 0.6 of 1.0M MnCl2, ~200 mM sulfide): 930.7 mVolts
- mVolts ([1]; Volume 0.8 of 1.0M MnCl2, ~200 mM sulfide): 929.4 mVolts
- mVolts ([1]; Volume 1.0 of 1.0M MnCl2, ~200 mM sulfide): 926.6 mVolts
- mVolts ([1]; Volume 1.2 of 1.0M MnCl2, ~200 mM sulfide): 921.4 mVolts
- mVolts ([1]; Volume 1.4 of 1.0M MnCl2, ~200 mM sulfide): 906.6 mVolts
- mVolts ([1]; Volume 1.7 of 1.0M MnCl2, ~200 mM sulfide): 903.0 mVolts
- mVolts ([1]; Volume 1.8 of 1.0M MnCl2, ~200 mM sulfide): 863.5 mVolts
- mVolts ([1]; Volume 1.9 of 1.0M MnCl2, ~200 mM sulfide): 855.2 mVolts
- mVolts ([1]; Volume 2.0 of 1.0M MnCl2, ~200 mM sulfide): 848.1 mVolts
- mVolts ([1]; Volume 2.1 of 1.0M MnCl2, ~200 mM sulfide): 841.7 mVolts
- mVolts ([1]; Volume 2.2 of 1.0M MnCl2, ~200 mM sulfide): 834.5 mVolts
- mVolts ([1]; Volume 2.3 of 1.0M MnCl2, ~200 mM sulfide): 829.2 mVolts
- mVolts ([1]; Volume 2.4 of 1.0M MnCl2, ~200 mM sulfide): 823.9 mVolts
- mVolts ([1]; Volume 2.5 of 1.0M MnCl2, ~200 mM sulfide): 817.9 mVolts
- mVolts ([1]; Volume 2.7 of 1.0M MnCl2, ~200 mM sulfide): 811.4 mVolts
- mVolts ([1]; Volume 2.8 of 1.0M MnCl2, ~200 mM sulfide): 804.0 mVolts
- mVolts ([1]; Volume 2.9 of 1.0M MnCl2, ~200 mM sulfide): 794.9 mVolts
- mVolts ([1]; Volume 3.0 of 1.0M MnCl2, ~200 mM sulfide): 783.1 mVolts
- mVolts ([1]; Volume 3.1 of 1.0M MnCl2, ~200 mM sulfide): 767.9 mVolts
- mVolts ([1]; Volume 3.3 of 1.0M MnCl2, ~200 mM sulfide): 746.6 mVolts
- mVolts ([1]; Volume 3.4 of 1.0M MnCl2, ~200 mM sulfide): 733.1 mVolts
- mVolts ([1]; Volume 3.5 of 1.0M MnCl2, ~200 mM sulfide): 718.3 mVolts
- mVolts ([1]; Volume 3.6 of 1.0M MnCl2, ~200 mM sulfide): 704.2 mVolts
- mVolts ([1]; Volume 3.7 of 1.0M MnCl2, ~200 mM sulfide): 694.2 mVolts
- mVolts ([1]; Volume 3.8 of 1.0M MnCl2, ~200 mM sulfide): 687.0 mVolts
- mVolts ([1]; Volume 3.9 of 1.0M MnCl2, ~200 mM sulfide): 679.7 mVolts
- mVolts ([1]; Volume 4.0 of 1.0M MnCl2, ~200 mM sulfide): 674.1 mVolts
- mVolts ([1]; Volume 4.2 of 1.0M MnCl2, ~200 mM sulfide): 670.1 mVolts
- mVolts ([1]; Volume 4.4 of 1.0M MnCl2, ~200 mM sulfide): 665.4 mVolts
- mVolts ([1]; Volume 4.6 of 1.0M MnCl2, ~200 mM sulfide): 661.8 mVolts
- mVolts ([1]; Volume 5.0 of 1.0M MnCl2, ~200 mM sulfide): 657.1 mVolts
- total sulfide ion concentrations in the rumen fluid versus BaCl2 and CaCl2 ([1]; ~200 mM sulfide): substantially lower total sulfide ion concentrations
- ADG (average daily gain) [2]: 3.58 lb/head/day
- DMI (dry matter intake) [2]: 23.18 lb/head/day
- End wt. [2]: 1147.5 lb
- Feed Efficiency (DM/gain) [2]: 6.48
- concentration of sulfide ion within the rumen fluid ([3]; addition of 1 M titrant to ~200 mM sulfide in fresh rumen fluid): effective to reduce the concentration of sulfide ion
- mVolts (Negative Value) ([3]; titrant volume 0.0 of 1M MnCl2): 952.6 mVolts
- mVolts (Negative Value) ([3]; titrant volume 0.3 of 1M MnCl2): 950.5 mVolts
- mVolts (Negative Value) ([3]; titrant volume 0.5 of 1M MnCl2): 947.7 mVolts
- mVolts (Negative Value) ([3]; titrant volume 0.7 of 1M MnCl2): 947.8 mVolts
- mVolts (Negative Value) ([3]; titrant volume 0.9 of 1M MnCl2): 940.4 mVolts
- mVolts (Negative Value) ([3]; titrant volume 1.1 of 1M MnCl2): 929.7 mVolts
- mVolts (Negative Value) ([3]; titrant volume 1.4 of 1M MnCl2): 918.4 mVolts
- mVolts (Negative Value) ([3]; titrant volume 1.6 of 1M MnCl2): 899.9 mVolts
- mVolts (Negative Value) ([3]; titrant volume 1.8 of 1M MnCl2): 882.2 mVolts
- mVolts (Negative Value) ([3]; titrant volume 2.0 of 1M MnCl2): 861.5 mVolts
- mVolts (Negative Value) ([3]; titrant volume 2.3 of 1M MnCl2): 850.2 mVolts
- mVolts (Negative Value) ([3]; titrant volume 2.5 of 1M MnCl2): 830.5 mVolts
- mVolts (Negative Value) ([3]; titrant volume 2.7 of 1M MnCl2): 808.9 mVolts
- mVolts (Negative Value) ([3]; titrant volume 2.9 of 1M MnCl2): 777.1 mVolts
- mVolts (Negative Value) ([3]; titrant volume 3.2 of 1M MnCl2): 735.7 mVolts
- mVolts (Negative Value) ([3]; titrant volume 3.4 of 1M MnCl2): 702.0 mVolts
- mVolts (Negative Value) ([3]; titrant volume 3.6 of 1M MnCl2): 686.7 mVolts
- mVolts (Negative Value) ([3]; titrant volume 3.9 of 1M MnCl2): 678.2 mVolts
- mVolts (Negative Value) ([3]; titrant volume 4.1 of 1M MnCl2): 672.4 mVolts
- mVolts (Negative Value) ([3]; titrant volume 4.3 of 1M MnCl2): 667.8 mVolts
- mVolts (Negative Value) ([3]; titrant volume 4.5 of 1M MnCl2): 664.4 mVolts
- mVolts (Negative Value) ([3]; titrant volume 4.7 of 1M MnCl2): 661.8 mVolts
- mVolts (Negative Value) ([3]; titrant volume 4.9 of 1M MnCl2): 658.9 mVolts
- mVolts (Negative Value) ([3]; titrant volume 5.2 of 1M MnCl2): 656.6 mVolts
- mVolts (Negative Value) ([3]; titrant volume 5.4 of 1M MnCl2): 654.6 mVolts
- mVolts (Negative Value) ([3]; titrant volume 6.0 of 1M MnCl2): 649.8 mVolts
- mVolts ([4]; Vol 1M Na2S 0.0): 533.2 mVolts
- mVolts ([4]; Vol 1M Na2S 0.3): 617.3 mVolts
- mVolts ([4]; Vol 1M Na2S 0.5): 631.2 mVolts
- mVolts ([4]; Vol 1M Na2S 0.8): 640.0 mVolts
- mVolts ([4]; Vol 1M Na2S 1.1): 641.8 mVolts
- mVolts ([4]; Vol 1M Na2S 1.4): 647.5 mVolts
- mVolts ([4]; Vol 1M Na2S 1.7): 649.0 mVolts
- mVolts ([4]; Vol 1M Na2S 2.1): 652.1 mVolts
- mVolts ([4]; Vol 1M Na2S 2.3): 653.0 mVolts
- mVolts ([4]; Vol 1M Na2S 2.6): 652.6 mVolts
- mVolts ([4]; Vol 1M Na2S 2.9): 658.0 mVolts
- mVolts ([4]; Vol 1M Na2S 3.2): 667.2 mVolts
- mVolts ([4]; Vol 1M Na2S 3.4): 678.8 mVolts
- mVolts ([4]; Vol 1M Na2S 3.5): 691.3 mVolts
- mVolts ([4]; Vol 1M Na2S 3.6): 710.6 mVolts
- mVolts ([4]; Vol 1M Na2S 3.8): 742.0 mVolts
- mVolts ([4]; Vol 1M Na2S 3.9): 770.9 mVolts
- mVolts ([4]; Vol 1M Na2S 4.0): 783.4 mVolts
- mVolts ([4]; Vol 1M Na2S 4.1): 804.1 mVolts
- mVolts ([4]; Vol 1M Na2S 4.2): 820.2 mVolts
- mVolts ([4]; Vol 1M Na2S 4.3): 837.8 mVolts
- mVolts ([4]; Vol 1M Na2S 4.4): 851.7 mVolts
- mVolts ([4]; Vol 1M Na2S 4.5): 863.4 mVolts
- mVolts ([4]; Vol 1M Na2S 4.7): 877.0 mVolts
- mVolts ([4]; Vol 1M Na2S 4.8): 883.6 mVolts
- mVolts ([4]; Vol 1M Na2S 4.9): 888.2 mVolts
- mVolts ([4]; Vol 1M Na2S 5.0): 893.2 mVolts
- precipitating sulfide ion versus MnO(II) and MnO2(IV) ([4]; rumen fluid titrated with 1.0M Na2S): much more effective in precipitating sulfide ion

From patent US9826761B2, “Compositions and methods for mitigating dietary sulfur in animals” (SarTec Corporation, priority 2008, dated 2017)
